Converted amounts (≈) assume the structure as drawn. Where two headings read alike, the source gives them in different places.
Assays:
[1] = system: T47D (human breast cancer); test: Antiproliferative assay in vitro (SRB), T47D; assay type: cell-based; settings: read-out: Cytotoxic activity IC50, T47D
Procedure: (§1) The tested cell lines were obtained from the American Type Culture Collection (Rockville, Maryland, USA) and maintained at the Cell Culture Collection of the Institute of Immunology and Experimental Therapy (Wrocław, Poland). The cells were seeded in 96-well plates (Sarstedt, USA) at a density of 10^4 cells per well in 100 µL of culture medium overnight. […] The normal mouse fibroblasts BALB3T3 was cultured in Dulbecco’s modified Eagle’s medium (Sigma-Aldrich, Chemie GmbH, Steinheim, Germany) supplemented with 2 mM glutamine (Sigma-Aldrich, Chemie GmbH, Steinheim, Germany) and 10 % fetal calf serum FBS (Sigma-Aldrich, Chemie GmbH, Steinheim, Germany). The all culture media were supplemented with streptomycin (100 µg/mL) and penicillin (100 U/mL) (both antibiotics from Polfa, Tarchomin, Poland). The cell cultures were maintained at 37 °C in humid atmosphere saturated with 5 % CO2. This technique as first was described by Skehan et al. in [1990]. The SRB assay was performed after 96 h exposure of the cultured cells to varying concentrations (ranging from 1 to 100 µg/mL) of the tested substances. The reported derivatives as well as betulin 1 were dissolved in 10 % dimethyl sulfoxide (DMSO) to concentration of 1 mg/mL, and next diluted in culture medium to reach the required concentrations. […] The cells fastened to the plastic were fixed mildly layering cold 50 % TCA (trichloroacetic acid, Aldrich-Chemie, Germany) on the top of the culture medium in each well. The plates were incubated at 4 °C for 1 h and then washed five times with tap water. The cells fixed with TCA were stained with 0.4 % sulforhodamine B (SRB, Sigma, Germany) dissolved in 1 % acetic acid (POCH, Gliwice, Poland) for 30 min. The unbound dye was removed by rinsing four times with 1 % acetic acid. The protein-bound dye was extracted with 10 mM unbuffered tris base (POCH, Gliwice, Poland) and then determined the optical density at 540 nm in a computer-interfaced, 96-well microtiter plate reader Multiscan RC photometer (Labsystems, Helsinki, Finland). The compounds in given concentration were examined in triplicates in each experiment which was repeated 3–5 times. The results of cytotoxic activity in vitro were expressed as an IC50 in µg/mL.

[2] = system: CCRF/CEM (human leukemia); test: Antiproliferative assay in vitro (MTT), CCRF/CEM; assay type: cell-based; settings: read-out: Cytotoxic activity IC50, CCRF/CEM
Procedure: (§2) The tested cell lines were obtained from the American Type Culture Collection (Rockville, Maryland, USA) and maintained at the Cell Culture Collection of the Institute of Immunology and Experimental Therapy (Wrocław, Poland). The cells were seeded in 96-well plates (Sarstedt, USA) at a density of 10^4 cells per well in 100 µL of culture medium overnight. […] The normal mouse fibroblasts BALB3T3 was cultured in Dulbecco’s modified Eagle’s medium (Sigma-Aldrich, Chemie GmbH, Steinheim, Germany) supplemented with 2 mM glutamine (Sigma-Aldrich, Chemie GmbH, Steinheim, Germany) and 10 % fetal calf serum FBS (Sigma-Aldrich, Chemie GmbH, Steinheim, Germany). The all culture media were supplemented with streptomycin (100 µg/mL) and penicillin (100 U/mL) (both antibiotics from Polfa, Tarchomin, Poland). The cell cultures were maintained at 37 °C in humid atmosphere saturated with 5 % CO2. The MTT assay was used for the cytotoxicity screening against leukemia cells growing in suspension culture. This assay was performed after 96 h of the leukemia cells to varying concentrations (ranging from 1 to 100 µg/mL) of the tested substances. The derivatives of betulin were dissolved in 10 % DMSO to concentration of 1 mg/mL, and next diluted in culture medium to reach the required concentrations. […] During the last 3–4 h of incubation 20 µl of MTT solution were added to each well (MTT: 3-(4,5-dimethylthiazol-2-yl)-2,5-diphenyl tetrazolium bromide; stock solution: 5 mg/mL). The pale yellow MTT is reduced to a navy blue formazan in the mitochondria of living cells. At the end of incubation time, 80 µL of the lysing mixture was added to each well (lysing mixture: 225 mL dimethylformamide, 67.5 g sodium dodecyl sulfate and 275 mL of distilled water). After 24 h are formed the crystals of formazan, which are insoluble in aqueous solutions. The formazan crystals had been dissolved. The optical densities were read on a Multiskan RC photometer at 570 nm wavelength. The compounds in given concentration were examined in triplicates in each experiment which was repeated 3–5 times. The results of cytotoxic activity in vitro were expressed as an IC50 in µg/mL.

SW707 (human colorectal) = test: Antiproliferative assay in vitro (SRB), SW707; assay type: cell-based; settings: for IC50: read-out: Cytotoxic activity IC50, SW707
Procedure: as §1

[3] = Antiproliferative assay in vitro (SRB), BALB3T3; assay type: cell-based, mouse; settings: mouse; murine BALB3T3 normal fibroblasts; 96 h exposure; 1 to 100 µg/mL; Neg = negative in the concentration used; read-out: Cytotoxic activity IC50, BALB3T3
Procedure: as §1

[4] = system: HL-60 (human promyelocytic leukemia); test: Antiproliferative assay in vitro (MTT), HL-60; assay type: cell-based; settings: Homo sapiens, read-out: Cytotoxic activity IC50, HL-60
Procedure: as §2

P388 (mouse leukemia) = test: Antiproliferative assay in vitro (MTT), P388; assay type: cell-based; settings: Mus musculus; murine P388; 96 h exposure; 1 to 100 µg/mL; Neg = negative in the concentration used; read-out: Cytotoxic activity IC50, P388
Procedure: as §2

[5] = system: BALB3T3 normal mouse fibroblasts; test: Antiproliferative assay in vitro (SRB), BALB3T3; assay type: cell-based; settings: murine BALB3T3 normal fibroblasts; 96 h exposure; 1 to 100 µg/mL; Neg = negative in the concentration used
Procedure: as §1

[6] = human T47D, 96 h exposure, 1 to 100 µg/mL, Neg = negative in the concentration used
[7] = human CCRF/CEM, 96 h exposure, 1 to 100 µg/mL, Neg = negative in the concentration used
[8] = human SW707, 96 h exposure, 1 to 100 µg/mL, Neg = negative in the concentration used
[9] = HL-60 cancer cell line, 96 h exposure

SMILES	IC50 at 96 h [3]	IC50 [1, 6]	IC50 [2, 7]	IC50 (P388 (mouse leukemia))	IC50 [4, 9]	melting point	also measured
C=C(C)[C@@H]1CC[C@]2(CO)CC[C@]3(C)[C@H](CC[C@@H]4[C@@]5(C)CC[C@H](O)C(C)(C)[C@@H]5CC[C@]43C)[C@@H]12 [Betulin 1, lup-20(29)-ene-3β,28-diol, reference compound]	47.3 ± 7.9 µg/mL (≈ 107 µM)						IC50 ([1]; Homo sapiens, T47D, 96 h): 32.4 ± 10.7 µg/mL (≈ 73.2 µM); IC50 ([2]; Homo sapiens, CCRF-CEM, 96 h): 10.9 ± 5.5 µg/mL (≈ 24.6 µM); IC50 (SW707 (human colorectal); Homo sapiens, SW707, 96 h): 22.9 ± 15.4 µg/mL (≈ 51.7 µM); IC50 ([4]; HL-60, 96 h): 7.2 ± 0.5 µg/mL (≈ 16.3 µM)
C=CC(=O)OC[C@]12CC[C@@H](C(=C)C)C1C1CCC3[C@@]4(C)CC[C@H](O)C(C)(C)C4CC[C@@]3(C)[C@]1(C)CC2 (stereo partly drawn) [Compound 4, 28-O-(2-Propenoyl)betulin]	24.3 ± 6.9 µg/mL (≈ 48.9 µM)	7.1 ± 2.7 µg/mL (≈ 14.3 µM)	19.6 ± 9.5 µg/mL (≈ 39.5 µM)	9.9 ± 5.9 µg/mL (≈ 19.9 µM)	18.8 ± 4.8 µg/mL (≈ 37.8 µM)	117 to 121 °C	IC50 (SW707 (human colorectal); [8]): 29.6 ± 4.2 µg/mL (≈ 59.6 µM)
C=C(C)[C@@H]1CC[C@]2(COC(=O)C#CC3CC3)CC[C@]3(C)C(CCC4[C@@]5(C)CC[C@H](O)C(C)(C)C5CC[C@]43C)C12 (stereo partly drawn) [Compound 6, 28-O-(3-Cyclopropyl-2-propynoyl)betulin]		33.6 ± 6.3 µg/mL (≈ 62.8 µM)	16.5 ± 8.5 µg/mL (≈ 30.9 µM)	8.4 ± 9.2 µg/mL (≈ 15.7 µM)	44.8 ± 10.9 µg/mL (≈ 83.8 µM)	108 to 113 °C	Cytotoxic activity IC50, SW707 (SW707 (human colorectal); [8]): Neg; Cytotoxic activity IC50, BALB3T3 [5]: Neg
C=C(C)[C@@H]1CC[C@]2(COC(=O)C=CC)CC[C@]3(C)C(CCC4[C@@]5(C)CC[C@H](O)C(C)(C)C5CC[C@]43C)C12 (stereo partly drawn) [Compound 8, 28-O-(2-Butenoyl)betulin]	25.6 ± 1.8 µg/mL (≈ 50.1 µM)	29.9 ± 9.3 µg/mL (≈ 58.5 µM)	28 ± 21.6 µg/mL (≈ 54.8 µM)	5.1 ± 4.9 µg/mL (≈ 9.98 µM)		182 to 184 °C	IC50 (SW707 (human colorectal); [8]): 32 ± 4.2 µg/mL (≈ 62.6 µM)
C=C(C)[C@@H]1CC[C@]2(COC(=O)OCCC)CC[C@]3(C)C(CCC4[C@@]5(C)CC[C@H](O)C(C)(C)C5CC[C@]43C)C12 (stereo partly drawn) [Compound 10, 28-O-Propoxycarbonylbetulin]					26.8 ± 2.5 µg/mL (≈ 50.7 µM)		
C=CCOC(=O)OC[C@]12CC[C@@H](C(=C)C)C1C1CCC3[C@@]4(C)CC[C@H](O)C(C)(C)C4CC[C@@]3(C)[C@]1(C)CC2 (stereo partly drawn) [Compound 11, 28-O-Allyloxycarbonylbetulin]					14.9 ± 3.9 µg/mL (≈ 28.3 µM)		
C#CCOC(=O)OC[C@]12CC[C@@H](C(=C)C)C1C1CCC3[C@@]4(C)CC[C@H](O)C(C)(C)C4CC[C@@]3(C)[C@]1(C)CC2 (stereo partly drawn) [Compound 12]					3.7 ± 0.5 µg/mL (≈ 7.05 µM)		
C=C(C)[C@@H]1CC[C@]2(COC(=O)CC)CC[C@]3(C)C(CCC4[C@@]5(C)CCC(=O)C(C)(C)C5CC[C@]43C)C12 (stereo partly drawn) [Compound 15, 28-O-Propanoylbetulone]					33.7 ± 5.5 µg/mL (≈ 67.8 µM)		
C=CC(=O)OC[C@]12CC[C@@H](C(=C)C)C1C1CCC3[C@@]4(C)CCC(=O)C(C)(C)C4CC[C@@]3(C)[C@]1(C)CC2 (stereo partly drawn) [Compound 16, 28-O-(2-Propenoyl)betulone]					5 ± 1.3 µg/mL (≈ 10.1 µM)		
